Paper PMC8224453, “A New PqsR Inverse Agonist Potentiates Tobramycin Efficacy to Eradicate Pseudomonas aeruginosa Biofilms” (Advanced Science, 2021)

What was measured:
[1] = Metabolic stability, rat liver S9; assay type: in vitro ADME; details: pooled liver S9 fraction, Table S4, n=1, read-out: t1/2 rat liver S9
Method: (§1) For the evaluation of combined phase I and phase II metabolic stability, the compound (1 μM) was incubated with 1 mg/mL pooled liver S9 fraction from the respective species (Xenotech), […]
(§2) 2 mM NADPH, 1 mM UDPGA, 10 mM MgCl2, 5 mM GSH and 0.1 mM PAPS at 37 °C for […]
(§3) 0, 5, 15, 30 or 60 min. The metabolic stability of Testosterone (1 μM) and verapamil (1 μM) […]
(§4) were determined in parallel to confirm the enzymatic activity of the S9 fraction. The […]
(§5) incubation was stopped by precipitation of S9 enzymes with 2 volumes of cold acetonitrile […]
(§6) containing internal standard (750 nM Diphenhydramine). Samples were stored on ice for 10 […]
(§7) min and precipitated protein was removed by centrifugation (10 min, 4 °C, 17,000 g).
(§8) Concentration of the remaining test compound at the different time points was analyzed by […]
(§9) LC-MS/MS (TSQ Quantum Access MAX, Thermo Fisher, Dreieich, Germany) and used to […]
(§10) determine half-life (t1/2). Stability of compound 4 in further S9 fractions are summarized in […]
(§11) Table S4. Metabolic stability studies in various S9 fractions. […]

[2] = Metabolic stability, monkey liver S9; assay type: in vitro ADME; details: pooled liver S9 fraction, Table S4, read-out: t1/2 monkey liver S9
Method: as §1, §2, §3, §4, §5, §6, §7, §8, §9, §10, §11

P. aeruginosa NH57388A = assay: Murine mucoid lung infection model, target engagement; assay type: in vivo, Pseudomonas aeruginosa
Method: We, therefore, decided to make use of a murine sub‐chronic infection model with a mucoid infection phenotype specifically enabling to assess the on‐target activity of QSIs. […] Animals were immediately treated with QSI 4 co‐administered using methyl cellulose (dose = 5 mg kg^−1) or vehicle (control), followed by further treatments at 24 and 48 h post‐infection. The lungs were harvested at 72 h time point, homogenized and extracted using ethyl acetate. As a readout for target engagement, we quantified the signal molecule levels of HHQ, PQS, and HQNO as proximal biomarkers for the activity of the bacterial target. […] In addition, we measured bacterial burden in form of CFU count as a treatment endpoint (Section S6.3, Supporting Information). […] Moreover, CFU was reduced by four‐fold upon treatment with QSI 4 (see Table S11 in the Supporting Information). […] However, considering the impact of the host immune system on bacterial clearance and the action of some PqsR‐controlled virulence factors toward immune‐system evasion (biofilm formation, pyocyanin production, elastase LasB expression), an indirect effect on the bacterial load in the lungs is plausible. However, it has to be stated that this effect is only minor compared to typical 2‐ to 4‐log unit reductions achieved by early antibiotic treatment.^[ ^31 ^]
6.3. Design of in vivo Target Engagement Study
General. Mouse experiments were approved by the Landesamt für Soziales, Gesundheit und Verbraucherschutz of the State of Saarland in accordance with the national guidelines for animal treatment on August, 17th, 2017 (22/2017). The IVC unit was located within a biosafety level 2 laboratory and mice were allowed to acclimatize to their environment for at least seven days prior to the experiment. Throughout the experiment, the mice had access to water and food ad libitum.
Background studies were performed in order to generate typical mean and standard deviation values for biomarkers of the control group. Sample size was calculated using BiAS.
(Software Version 11.08) from these values with alpha = 0.05 and P = 0.8 for biomarker reduction of 80% resulting in a sample size of ten mice or higher for a two-sample t-test.
Primary study. Ten-week old female C57BL/6N mice were housed in an individually ventilated-cage unit with ten mice per cage and twenty mice in total. One group (from one cage) was treated with compound 4, while the other group received a sham treatment with vehicle. Mice were not randomized, and no blinding was applied.
For the infection, each mouse was anesthetized intraperitoneally with 2.025 mg of ketaminhydrochloride (Ursotamin, Serumwerk Bernburg, Germany) and 0.12 mg of xylazinhydrochloride (Xylazin, WDF, Serumwerk Bernburg). Lidocainhydrochloride (Xylocain; Aspen Pharma, Ireland) was used for local anesthesia of the epiglottis before endotracheal intubation with a flexible cannula and intra-tracheal application of the inoculum […]
Application of inoculum (start of infection, 0 h) using 20 µL viable P. aeruginosa NH57388A culture supplemented with sodium alginate (22 mg/mL, Sigma). These were mixed with 20 µL of either compound 4 (5 mg/kg BW suspended in 0.1% methylcellulose) or vehicle (0.1% methylcellulose) to conduct the first treatment simultaneously to infection via intra-tracheal application assisted by endotracheal intubation using a flexible cannula. Bacterial load was determined to be 5∙10^7 CFU per mouse by plating serial dilutions on LB-agar plates.
Subsequent treatments were performed at 24 and 48 h post infection with 20 µL of compound 4 (5 mg/kg BW suspended in 0.5% methylcellulose, 0.2 vol-% Tween-80) or vehicle (0.5% methylcellulose, 0.2 vol-% Tween 80) were administered intra-tracheally following the same procedure as the infection. 72 h post infection mice were euthanized, lungs were removed aseptically and homogenized in 500 µL sterile phosphate buffered saline over the course of […]
72 h. Again, bacterial load was determined by plating serial dilutions on LB-agar plates. The […]

[3] = Metabolic stability, rabbit liver S9; assay type: in vitro ADME; details: pooled liver S9 fraction, Table S4, read-out: t1/2 rabbit liver S9
Method: subtraction and plotted using GraphPad Prism 8.4.2 (GraphPad Software, San Diego, CA, […]
USA). Solubility (S) was determined based on the First X value of AUC function using a […]
as §1, §2, §3, §4, §5, §6, §7, §8, §9, §10, §11
guinea pig liver S9 92.5 ± 5.4
5.6. Permeability studies
Permeability of compound 4 and 17 was assessed in vitro with Calu-3 HTB-55 cell line (ATCC). […]

[4] = treated group, n = 7, 72 h, below LLOQ

FC(F)(F)c1cc(NCc2cn(-c3ccc(Oc4ccccc4)cc3)nn2)ccn1 [Compound 4]
half-life at 1 μM [1]: 24.2 min | half-life at 1 μM [2]: 22.8 ± 6.7 min | reduction of CFU / bacterial load upon treatment (P. aeruginosa NH57388A; mice, 5 mg kg^−1, 72 h): four‐fold | auto‐inducer levels (HHQ, PQS, HQNO) in infected lungs (P. aeruginosa NH57388A; mice, 5 mg kg^−1, 72 h, p < 0.05): reduced significantly | CFU/mouse Mean (P. aeruginosa NH57388A; treated group, n = 7, 72 h): 173600 CFU/mouse | CFU/mouse Median (P. aeruginosa NH57388A; treated group, n = 7, 72 h): 147500 CFU/mouse | HHQ Mean (P. aeruginosa NH57388A; treated group, n = 7, 72 h): 1.7 pmol | HHQ Median (P. aeruginosa NH57388A; treated group, n = 7, 72 h): 0.9 pmol | HQNO Mean (P. aeruginosa NH57388A; treated group, n = 7, 72 h): 5.2 pmol | HQNO Median (P. aeruginosa NH57388A; treated group, n = 7, 72 h): 2.3 pmol | PQS Mean (P. aeruginosa NH57388A; [4]): 0.3 pmol | PQS Median (P. aeruginosa NH57388A; [4]): 0.2 pmol | Reduction through treatment, CFU/mouse (P. aeruginosa NH57388A; treated vs untreated means): 77.3% | Reduction through treatment, HHQ (P. aeruginosa NH57388A; treated vs untreated means): 99.3% | Reduction through treatment, HQNO (P. aeruginosa NH57388A; treated vs untreated means): 98.3% | Reduction through treatment, PQS (P. aeruginosa NH57388A; treated vs untreated means): 99.1% | half-life at 1 μM [3]: 20 ± 10 min
